The structures appear in SMILES notation. Read-outs that look alike come from different tables or passages of the source.

The target of this assay is recombinant eIF4E (Homo sapiens (Human), UniProt P06730). Briefly: Fluorescence polarization competition assay for eIF4E binding potency. Put shortly:
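Competition of test compound against 20 nM EDA-m^7GDP-ATTO-550 for 75 nM recombinant eIF4E, pre-incubated 5 min, in 20 mM Tris pH 7.5, 100 mM NaCl, 1 mM DTT, 0.02% Tween-20, 1% DMSO. Equilibrated 30 min at room temperature, dark; fluorescence polarization read. IC50 from 8-point, 3-fold dilution series.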
A general note: Fluorescence polarisation rises when a labelled molecule tumbles more slowly, as on binding a larger partner.

[1] abbreviates: fluorescence polarization competition, 75 nM recombinant eIF4E, 20 nM EDA-m7GDP-ATTO-550, IC50 class, read-out: elF4E FP.
Where [2] appears, read: inhibition of eIF4E/EDA-m7GDP-ATTO-550 binding, calculated IC50 values, Table 4B, read-out: IC50.
[3] abbreviates: inhibition of eIF4E/EDA-m7GDP-ATTO-550 binding by 50%, Table 4B calculated values, read-out: IC50.

Chain of recombinant eIF4E (P06730 whole entry): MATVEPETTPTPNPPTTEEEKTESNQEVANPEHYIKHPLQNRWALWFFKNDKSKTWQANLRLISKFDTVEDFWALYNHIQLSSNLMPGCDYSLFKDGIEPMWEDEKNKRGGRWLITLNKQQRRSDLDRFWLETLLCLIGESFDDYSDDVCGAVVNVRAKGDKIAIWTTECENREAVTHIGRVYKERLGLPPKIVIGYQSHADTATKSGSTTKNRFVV

`CCc1cc(-c2cc(Cl)ccc2OCCn2c(C)nc3cnc(N4CCNC5CC54)c(C#N)c3c2=O)c2scc(C(=O)O)c2n1` (centres unmarked) [compound 1220]: the IC50 under setting [1] is less than 50 nM and the IC50 under setting [2] was 13.1 nM.

`O=C(O)c1cccc(-c2cc(Cl)ccc2OCCc2ccnc3nc(Nc4ccccc4)[nH]c(=O)c23)c1` [compound 176]: the IC50 reads like this: under setting [1], less than 50 nM; under setting [3], 41.5 nM.

With `Cc1cc(-c2cc(Cl)ccc2OCCn2c(C)nc3cc(CNC(C)(C)C)c(OC(F)F)c(C#N)c3c2=O)c2scc(C(=O)O)c2n1` [compound 619], the IC50 is less than 50 nM under setting [1] and 6.34 nM under setting [3].

With `Cc1ncc(-c2cc(Cl)ccc2OCCn2c(C)nc3cnc(C4CC4)c(C#N)c3c2=O)c2scc(C(=O)O)c12` [compound 900], the IC50 reads like this: under setting [1], less than 50 nM; under setting [3], 11.2 nM.

With `Cc1cc(-c2cc(CN3CCN(C)CC3)ccc2OCCn2c(C)nc3cc(F)c(CN4CCN(C)CC4)c(C#N)c3c2=O)c2scc(C(=O)O)c2n1` [compound 2027], the IC50 under setting [2] was more than 1000 nM.

With `CCc1cc(-c2cc(Cl)ccc2OCCn2c(C)nc3c(C)nc(N)c(C#N)c3c2=O)c2scc(C(=O)O)c2n1` [Compound 1069], the IC50 reads like this: under setting [1], less than 50 nM; under setting [3], 1.52 nM.

As to `CCc1cc(-c2cc(Cl)ccc2OCCn2c(C)nc3cc(C(F)(F)F)c(N4CC5(C4)CN(C4CC4)C5)c(C#N)c3c2=O)c2scc(C(=O)NS(C)(=O)=O)c2n1` [compound 1932], the IC50 under setting [2] is 8.4 nM.

For `Cc1nc2c(C(F)(F)F)cc(N3CCN(C)CC3)nc2c(=O)n1CC#Cc1ccc(Cl)cc1-c1ccnc2c(C(=O)O)csc12` [compound 1981], the IC50 under setting [2] is 23.8 nM.

For the molecule `Cc1nc2cc(C(F)(F)F)c(-c3ccncc3)c(C#N)c2c(=O)n1CCOc1ccc(Cl)cc1-c1cccc(C(=O)O)c1` [compound 386], the IC50 runs as follows: under setting [1], less than 50 nM; under setting [3], 25.4 nM.

In the case of `Cc1nc2cnc(N(C)C3CCN(C(c4ccn(C)n4)C(F)F)CC3)c(C#N)c2c(=O)n1CC#Cc1ccc(Cl)cc1-c1ccnc2c(C(=O)O)csc12` (centres unmarked) [compound 1537], the IC50 under setting [2] was 18.9 nM.

Regarding `Cc1nc2cnc(N(C)C3CCN(CC(C)(F)F)CC3)c(C#N)c2c(=O)n1CC#Cc1ccc(Cl)cc1-c1ccnc2c(C(=O)NS(=O)(=O)c3ccc(C(F)(F)F)nc3)csc12` [compound 1674], under setting [2], the IC50 is 6.5 nM.

`Cc1nc2cc(C(F)(F)F)c(CC3CN(CCF)C3)c(C#N)c2c(=O)n1CCOc1ccc(Cl)cc1-c1ccnc2c(C(=O)O)csc12` [compound 321]: the IC50 is, setting by setting: under setting [1], less than 50 nM; under setting [3], 4.89 nM.

With `Cc1nc2cnc(N(C)C3CCN(CCOC(F)F)CC3)c(C#N)c2c(=O)n1CCOc1ccc(Cl)cc1-c1ccnc2c(C(=O)O)csc12` [compound 1513], the IC50 under setting [2] was 13.4 nM.

Take `Cc1cc(-c2cc(Cl)ccc2OCCn2c(C)nc3cc(C(F)(F)F)c(-c4ccn(C)n4)nc3c2=O)c2scc(C(=O)O)c2n1` [compound 787]: the IC50 by setting is: under setting [1], less than 50 nM; under setting [3], 10.9 nM.

With `Cc1nc2cnc(N(C)c3ccncc3)c(C#N)c2c(=O)n1CC#Cc1ccc(Cl)cc1-c1ccnc2c(C(=O)O)csc12` [compound 1569], the IC50 under setting [2] is 19.5 nM.

In the case of `Cc1nc2cc(C(F)(F)F)cc(C#N)c2c(=O)n1CCOc1ccc(Cl)cc1-c1ccnc2c(-c3cc(O)no3)csc12` [compound 1375], under setting [2], the IC50 is 83.9 nM.

Take `Cc1nc2cnc(N(C)C3CCN([C@H]4C[C@H](F)C4)CC3)c(C#N)c2c(=O)n1CC#Cc1ccc(Cl)cc1-c1ccnc2c(C(=O)NS(=O)(=O)c3cccnc3)csc12` [compound 1794]: the IC50 under setting [2] was 9.28 nM.

As for `Cc1nc2cc(C(F)(F)F)cc(C#N)c2c(=O)n1CCOc1ccc(Cl)cc1-c1ccnc2c(C(=O)O)csc12` [Compound 272], the IC50 by setting is: under setting [1], less than 50 nM; under setting [3], 22.9 nM.

With `Cc1cc(-c2cc(Cl)ccc2OCCn2c(C)nc3ccc(OC(F)(F)F)c(C#N)c3c2=O)c2scc(C(=O)O)c2n1` [compound 583], the IC50 under setting [1] is less than 50 nM and the IC50 under setting [3] is 15.9 nM.

The values above are taken from patent US11286268B1, “EIF4E-inhibiting compounds and methods” (EFFECTOR THERAPEUTICS, INC., priority 2019, dated 2022).
